Measured values published in ChEMBL document CHEMBL1149784, “Discovery of a new anilino-3H-pyrrolo[3,2-f]quinoline derivative as potential anti-cancer agent” (Eur J Med Chem, 2008).
Values belong to the compound of their own block, whether it stands above or below them. The source made the active and inactive calls. No cut-off for these calls is given here.

Tests used:
OVCAR-3 [1] = test: Cell cycle arrest in human OVCAR-3 cells assessed as accumulation at G0/G1 phase at 1 uM by flow cytometry; format: functional
OVCAR-3 [2] = test: Cell cycle arrest in human OVCAR-3 cells assessed as accumulation at G2/M phase at 1 uM by flow cytometry; format: functional
OVCAR-3 [3] = test: Cell cycle arrest in human OVCAR-3 cells assessed as accumulation at subG0 phase at 1 uM by flow cytometry; format: functional
OVCAR-3 [4] = test: Cell cycle arrest in human OVCAR-3 cells assessed as accumulation at S phase at 1 uM by flow cytometry; format: functional
OVCAR-3 [5] = test: Cell cycle arrest in human OVCAR-3 cells assessed as accumulation at G2/M phase at 10 uM by flow cytometry; format: functional
OVCAR-3 [6] = test: Cell cycle arrest in human OVCAR-3 cells assessed as accumulation at S phase at 10 uM by flow cytometry; format: functional
OVCAR-3 [7] = test: Cell cycle arrest in human OVCAR-3 cells assessed as accumulation at G0/G1 phase at 5 uM by flow cytometry; format: functional
[8] = Growth inhibition of human JR8 cells after 72 hrs by trypan blue assay; format: functional, cell-based; settings: JR8, 72 h
OVCAR-3 [9] = test: Cell cycle arrest in human OVCAR-3 cells assessed as accumulation at S phase at 5 uM by flow cytometry; format: functional
Salmonidae = test: Binding affinity to Salmon testes DNA assessed as drug-DNA complex formation by linear flow dichroism method
OVCAR-3 [10] = test: Cell cycle arrest in human OVCAR-3 cells assessed as accumulation at subG0 phase at 10 uM by flow cytometry; format: functional
OVCAR-3 [11] = test: Cell cycle arrest in human OVCAR-3 cells assessed as accumulation at G2/M phase at 5 uM by flow cytometry; format: functional
OVCAR-3 [12] = test: Growth inhibition of human OVCAR-3 cells after 72 hrs by trypan blue assay; format: functional, cell-based; settings: OVCAR-3, 72 h
OVCAR-3 [13] = test: Cell cycle arrest in human OVCAR-3 cells assessed as accumulation at G0/G1 phase at 10 uM by flow cytometry; format: functional
[14] = target: DNA topoisomerase 2-alpha (Homo sapiens) (UniProt P11388); test: Inhibition of human recombinant topoisomerase 2 assessed as relaxation of supercoiled pBR322 DNA
Sequence of DNA topoisomerase 2-alpha (Homo sapiens) (P11388 whole entry): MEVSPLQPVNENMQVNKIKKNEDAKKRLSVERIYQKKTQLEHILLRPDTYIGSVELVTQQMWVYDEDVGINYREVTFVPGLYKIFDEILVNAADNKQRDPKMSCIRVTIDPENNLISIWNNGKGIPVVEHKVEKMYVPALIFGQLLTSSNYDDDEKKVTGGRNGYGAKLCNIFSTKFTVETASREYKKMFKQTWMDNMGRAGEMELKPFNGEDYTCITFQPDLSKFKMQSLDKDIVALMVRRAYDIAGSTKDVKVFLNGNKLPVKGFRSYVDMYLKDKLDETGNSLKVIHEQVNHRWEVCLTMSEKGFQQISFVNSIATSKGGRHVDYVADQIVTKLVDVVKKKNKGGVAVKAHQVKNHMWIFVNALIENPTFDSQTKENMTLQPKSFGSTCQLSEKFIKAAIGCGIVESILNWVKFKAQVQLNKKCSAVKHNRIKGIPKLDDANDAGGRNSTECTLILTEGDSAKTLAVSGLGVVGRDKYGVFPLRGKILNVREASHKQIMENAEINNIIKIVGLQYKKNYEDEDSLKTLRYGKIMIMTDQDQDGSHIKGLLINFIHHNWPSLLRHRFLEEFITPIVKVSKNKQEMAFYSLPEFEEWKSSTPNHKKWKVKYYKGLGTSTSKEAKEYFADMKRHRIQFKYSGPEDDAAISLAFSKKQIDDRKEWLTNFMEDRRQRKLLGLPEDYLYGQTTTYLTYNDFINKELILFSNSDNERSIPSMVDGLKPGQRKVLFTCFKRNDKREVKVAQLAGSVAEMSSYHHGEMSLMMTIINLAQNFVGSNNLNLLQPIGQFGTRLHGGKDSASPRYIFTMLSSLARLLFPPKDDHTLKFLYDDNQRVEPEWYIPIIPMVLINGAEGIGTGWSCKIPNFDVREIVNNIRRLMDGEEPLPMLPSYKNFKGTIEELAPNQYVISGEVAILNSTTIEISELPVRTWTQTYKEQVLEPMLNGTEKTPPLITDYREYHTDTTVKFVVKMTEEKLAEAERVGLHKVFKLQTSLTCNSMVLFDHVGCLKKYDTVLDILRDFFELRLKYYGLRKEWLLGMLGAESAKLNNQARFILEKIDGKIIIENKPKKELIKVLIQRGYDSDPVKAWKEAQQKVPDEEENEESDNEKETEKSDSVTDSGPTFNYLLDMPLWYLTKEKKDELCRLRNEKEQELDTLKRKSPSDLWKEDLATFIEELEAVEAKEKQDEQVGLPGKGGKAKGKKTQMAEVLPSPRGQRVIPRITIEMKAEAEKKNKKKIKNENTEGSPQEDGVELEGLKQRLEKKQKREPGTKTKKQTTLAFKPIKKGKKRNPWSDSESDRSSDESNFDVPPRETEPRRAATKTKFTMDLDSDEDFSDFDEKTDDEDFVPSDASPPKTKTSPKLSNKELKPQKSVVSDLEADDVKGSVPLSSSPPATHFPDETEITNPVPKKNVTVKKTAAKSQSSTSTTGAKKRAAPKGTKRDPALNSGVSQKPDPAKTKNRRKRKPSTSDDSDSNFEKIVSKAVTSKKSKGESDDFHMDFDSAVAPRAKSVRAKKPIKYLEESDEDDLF

HL-60 = test: Growth inhibition of human HL60 cells after 72 hrs by trypan blue assay; format: functional, cell-based; settings: HL-60, 72 h
HeLa = test: Growth inhibition of human HeLa cells after 72 hrs by trypan blue assay; format: functional, cell-based
OVCAR-3 [15] = test: Cell cycle arrest in human OVCAR-3 cells assessed as accumulation at subG0 phase at 5 uM by flow cytometry; format: functional
OVCAR-3 [16] = test: Cell cycle arrest in human OVCAR-3 cells assessed as accumulation at G2/M phase at 16 uM by flow cytometry; format: functional
OVCAR-3 [17] = test: Cell cycle arrest in human OVCAR-3 cells assessed as accumulation at subG0 phase at 16 uM by flow cytometry; format: functional
OVCAR-3 [18] = test: Cell cycle arrest in human OVCAR-3 cells assessed as accumulation at G0/G1 phase at 16 uM by flow cytometry; format: functional
OVCAR-3 [19] = test: Cell cycle arrest in human OVCAR-3 cells assessed as accumulation at S phase at 16 uM by flow cytometry; format: functional

SMILES: CC[C@]1(O)C[C@H]2CN(CCc3c([nH]c4ccccc34)[C@@](C(=O)OC)(c3cc4c(cc3OC)N(C=O)[C@H]3[C@@](O)(C(=O)OC)[C@H](OC(C)=O)[C@]5(CC)C=CCN6CC[C@]43[C@@H]65)C2)C1 [VINCRISTINE]
Activity (OVCAR-3 [1]): 46.8%
Activity (OVCAR-3 [2]): 45.2%
Activity (OVCAR-3 [3]): 0.5%
Activity (OVCAR-3 [4]): 7.9%

Activity (Salmonidae): Active
IC50 (OVCAR-3 [12]): 530 nM
Activity [14]: Dose-dependent effect
IC50 (HL-60): 500 nM
IC50 (HeLa): 3400 nM
SMILES: CC(=O)c1ccc(Nc2ccnc3ccc4[nH]ccc4c23)cc1.Cl
Activity (OVCAR-3 [1]): 51.9%
Activity (OVCAR-3 [5]): 63.7%
Activity (OVCAR-3 [6]): 11.6%
Activity (OVCAR-3 [2]): 31.4%
Activity (OVCAR-3 [7]): 24.7%
Activity (OVCAR-3 [3]): 7.6%
IC50 [8]: 590 nM
Activity (OVCAR-3 [9]): 13.6%
Activity (OVCAR-3 [10]): 0.5%
Activity (OVCAR-3 [11]): 57.8%
Activity (OVCAR-3 [13]): 24.5%
Activity (OVCAR-3 [15]): 4.3%
Activity (OVCAR-3 [4]): 9.4%

SMILES: COc1cc(NS(C)(=O)=O)ccc1Nc1c2ccccc2nc2ccccc12 [AMSACRINE]
Activity (OVCAR-3 [16]): 41.3%
Activity (OVCAR-3 [17]): 1.8%
Activity (OVCAR-3 [18]): 44.7%
Activity (OVCAR-3 [19]): 12.7%
